Experimental findings from ChEMBL document CHEMBL5316374, “Forrestiacids E-K: Further [4 + 2]-Type Triterpene-Diterpene Hybrids as Potential ACL Inhibitors from the Vulnerable Conifer Pseudotsuga forrestii” (J Nat Prod, 2023) are described below.

Each structure is given as a SMILES string.

The target of the experiment is T1, ATP-citrate synthase (Homo sapiens, UniProt P53396).
T1 sequence (P53396 whole entry): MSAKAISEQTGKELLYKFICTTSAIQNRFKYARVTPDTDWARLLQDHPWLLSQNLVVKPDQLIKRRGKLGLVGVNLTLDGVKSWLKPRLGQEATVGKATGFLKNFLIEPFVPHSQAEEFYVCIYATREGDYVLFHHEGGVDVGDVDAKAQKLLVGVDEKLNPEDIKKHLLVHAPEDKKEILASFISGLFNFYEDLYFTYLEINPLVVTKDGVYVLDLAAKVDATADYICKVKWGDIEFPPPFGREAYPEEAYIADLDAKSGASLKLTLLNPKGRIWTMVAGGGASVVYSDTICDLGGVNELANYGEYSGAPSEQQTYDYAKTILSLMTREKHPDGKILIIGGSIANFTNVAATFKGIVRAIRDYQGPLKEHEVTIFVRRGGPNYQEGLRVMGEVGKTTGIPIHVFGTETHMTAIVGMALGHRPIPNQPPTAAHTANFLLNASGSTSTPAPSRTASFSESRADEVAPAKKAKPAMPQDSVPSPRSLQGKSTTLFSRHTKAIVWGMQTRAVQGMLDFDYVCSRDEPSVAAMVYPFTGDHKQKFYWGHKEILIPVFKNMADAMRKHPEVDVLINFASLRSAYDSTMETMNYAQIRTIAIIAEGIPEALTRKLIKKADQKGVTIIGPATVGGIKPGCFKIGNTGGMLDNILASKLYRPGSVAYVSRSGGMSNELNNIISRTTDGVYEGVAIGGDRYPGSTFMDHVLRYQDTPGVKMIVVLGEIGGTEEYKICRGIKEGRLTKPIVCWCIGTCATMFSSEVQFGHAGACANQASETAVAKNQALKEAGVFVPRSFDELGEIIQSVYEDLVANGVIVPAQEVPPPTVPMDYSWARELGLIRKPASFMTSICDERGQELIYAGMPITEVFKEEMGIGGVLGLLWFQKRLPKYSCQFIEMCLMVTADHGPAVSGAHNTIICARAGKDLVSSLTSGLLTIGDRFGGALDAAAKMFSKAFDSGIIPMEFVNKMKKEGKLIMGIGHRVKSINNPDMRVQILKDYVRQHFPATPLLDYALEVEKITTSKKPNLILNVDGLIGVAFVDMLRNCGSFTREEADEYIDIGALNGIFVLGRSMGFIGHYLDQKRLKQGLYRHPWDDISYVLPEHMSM
Briefly: Inhibition of ACL (unknown origin) incubated for 30 mins in presence of ATP by luminescence based ADP-Glo kinase assay. For orientation: ADP-Glo first removes unused ATP, then detects ADP through luciferase.
The term IC50 denotes the concentration that inhibits the measured activity by half. Take `C=C1CC[C@@](C)([C@H](C)CC(=O)C[C@]2(C(=O)O)C[C@H]3C[C@@H]4[C@@]5(C)CCC[C@@](C)(C(=O)O)[C@@H]5CC[C@]42C=C3C(C)C)[C@@]12CCC1=C2CC[C@@H]2[C@@H]1CCC(=O)C2(C)C`: the IC50 was found to be 1.8 µM.

Consider `C=C1CC[C@@H]([C@H](C)CC(=O)/C=C(\C)C(=O)O)[C@@]12CCC1=C2CC[C@H]2C(C)(C)C(=O)CC[C@]12C`, for which the IC50 worked out at 34.9 µM.

Regarding `CC(C)C1=C[C@@]23CC[C@@H]4[C@](C)(CCC[C@@]4(C)C(=O)O)[C@H]2C[C@@H]1C[C@@]3(CC(=O)C[C@@H](C)[C@H]1CC[C@@]2(C)C3=C(CC[C@]12C)[C@H]1CCC(=O)C(C)(C)[C@@H]1CC3)C(=O)O`, the IC50 came out at 2.6 µM.

Take `COc1ccc(-c2ccccc2)cc1NS(=O)(=O)c1cc(Cl)cc(Cl)c1O`: the IC50 was 0.46 µM.

As for `C=C1CC[C@@](C)([C@H](C)CC(=O)C[C@]2(C(=O)O)C[C@H]3C[C@@H]4[C@@]5(C)CCC[C@@](C)(C(=O)O)[C@@H]5CC[C@]42C=C3C(C)C)[C@@]12CCC1=C2CC[C@@H]2[C@@H]1CC[C@H](O)C2(C)C`, the IC50 worked out at 7.1 µM.

For the molecule `CC(C)C1=CC[C@H]2C(=C1)CC[C@@H]1[C@]2(C)CCC[C@@]1(C)C(=O)O`, the IC50 was above 40 µM.

As to `C=C1CC[C@@](C)([C@H](C)CC(=O)C[C@@]2(C(=O)O)C[C@H]3C[C@@H]4[C@@]5(C)CCC[C@@](C)(C(=O)O)[C@@H]5CC[C@]42C=C3C(C)C)[C@@]12CCC1=C2CC[C@@H]2[C@@H]1CCC(=O)C2(C)C`, the IC50 is 3.3 µM.

As to `C=C1CC[C@@](C)([C@H](C)CC(=O)C[C@@](C)(C(=O)O)[C@]2(C(=C)C)C=C3CC[C@@H]4[C@](C)(CCC[C@@]4(C)C(=O)O)[C@H]3CC2)[C@@]12CCC1=C2CC[C@H]2C(C)(C)C(=O)CC[C@]12C`, the IC50 came to 22.8 µM.

In the case of `CC(C)C1=C[C@@]23CC[C@@H]4[C@](C)(CCC[C@@]4(C)C(=O)O)[C@H]2C[C@@H]1[C@H](C(=O)C[C@@H](C)[C@H]1CC[C@@]2(C)C4=C(CC[C@]12C)[C@H]1CCC(=O)C(C)(C)[C@@H]1CC4)[C@@]3(C)C(=O)O`, the IC50 worked out at 6.2 µM.

In the case of `C=C1CC[C@@](C)([C@H](C)CC(=O)[C@H]2[C@H]3C[C@@H]4[C@@]5(C)CCC[C@@](C)(C(=O)O)[C@@H]5CC[C@@]4(C=C3C(C)C)[C@]2(C)C(=O)O)[C@@]12CCC1=C2CC[C@H]2C(C)(C)C(=O)CC[C@]12C`, the IC50 stood at 4.1 µM.

Take `C=C1CC[C@@](C)([C@H](C)CC(=O)[C@@H]2[C@H]3C[C@@H]4[C@@]5(C)CCC[C@@](C)(C(=O)O)[C@@H]5CC[C@@]4(C=C3C(C)C)[C@@]2(C)C(=O)O)[C@@]12CCC1=C2CC[C@H]2C(C)(C)C(=O)CC[C@]12C`: the IC50 stood at 3.6 µM.

Regarding `C=C1CC[C@@](C)([C@H](C)CC(=O)C[C@](C)(C(=O)O)[C@]2(C(=C)C)C=C3CC[C@@H]4[C@](C)(CCC[C@@]4(C)C(=O)O)[C@H]3CC2)[C@@]12CCC1=C2CC[C@H]2C(C)(C)C(=O)CC[C@]12C`, the IC50 is 11 µM.

Turning to `C=C1CC[C@@](C)([C@H](C)CC(=O)[C@H]2[C@H]3C[C@@H]4[C@@]5(C)CCC[C@@](C)(C(=O)O)[C@@H]5CC[C@]45C(OC(=O)[C@]25C)C3=C(C)C)[C@@]12CCC1=C2CC[C@H]2C(C)(C)C(=O)CC[C@]12C`, the concentration for half-maximal inhibition (IC50) came out at 10.8 µM.
